Measured values as given in patent US20100152230A1, “HYDROXY SUBSTITUTED 1H-IMIDAZOPYRIDINES AND METHODS” (Pfizer Inc., priority 2005, published 2010).
Counter-ions that a name gives are not always drawn.

| Structure (SMILES) | melting point [°C] |
| --- | --- |
| CCCCCc1cc2c(nc(O)n2CC2CCOCC2)c(N)n1 [Example 4, 4-Amino-6-pentyl-1-(tetrahydro-2H-pyran-4-ylmethyl)-1H-imidazo[4,5-c]pyridin-2-ol] | > 250 |
| CCCCCc1cc2c(nc(O)n2CCOCCCc2nccs2)c(N)n1 [Example 7] | 177 to 178 |
| CCCCCc1cc2c(nc(O)n2CCCNS(C)(=O)=O)c(N)n1 [Example 8, N-[3-(4-Amino-2-hydroxy-6-pentyl-1H-imidazo[4,5-c]pyridin-1-yl)propyl]methanesulfonamide] | 174 to 176 |
| CCCCCc1cc2c(nc(O)n2CC2CCNCC2)c(N)n1 [Example 11, 4-Amino-6-pentyl-1-(piperidin-4-ylmethyl)-1H-imidazo[4,5-c]pyridin-2-ol] | 246 to 249 |
| CCCCCc1cc2c(nc(O)n2CC2CCN(S(C)(=O)=O)CC2)c(N)n1 [Example 12, 4-Amino-1-{[1-(methylsulfonyl)piperidin-4-yl]methyl}-6-pentyl-1H-imidazo[4,5-c]pyridin-2-ol] | 228 to 231 |
| CCCCCc1cc2c(nc(O)n2CC2CCN(C(C)=O)CC2)c(N)n1 [Example 13, 1-[(1-Acetylpiperidin-4-yl)methyl]-4-amino-6-pentyl-1H-imidazo[4,5-c]pyridin-2-ol] | 228 to 231 |
| CCCCCc1cc2c(nc(O)n2CC2CCN(S(=O)(=O)CC)CC2)c(N)n1 [Example 14, 4-Amino-1-{[1-(ethylsulfonyl)piperidin-4-yl]methyl}-6-pentyl-1H-imidazo[4,5-c]pyridin-2-ol] | 222 to 225 |
| CCCCCc1cc2c(nc(O)n2CC2CCN(C(=O)C3CC3)CC2)c(N)n1 [Example 15, 4-Amino-1-{[1-(cyclopropylcarbonyl)piperidin-4-yl]methyl}-6-pentyl-1H-imidazo[4,5-c]pyridin-2-ol] | 205 to 207 |
| CCCCCc1cc2c(nc(O)n2CCCCS(C)(=O)=O)c(N)n1 [Example 16, 4-Amino-1-[4-(methylsulfonyl)butyl]-6-pentyl-1H-imidazo[4,5-c]pyridin-2-ol] | 188 to 189 |
| CCOCCc1cc2c(nc(O)n2CCCCS(C)(=O)=O)c(N)n1 [Example 18, 4-Amino-6-(2-ethoxyethyl)-1-[4-(methylsulfonyl)butyl]-1H-imidazo[4,5-c]pyridin-2-ol] | 203 to 206 |
| Cc1nc(N)c2nc(O)n(Cc3cc(-c4ccc(F)cc4)no3)c2c1C [Example 19, 4-Amino-1-{[3-(4-fluorophenyl)isoxazol-5-yl]methyl}-6,7-dimethyl-1H-imidazo[4,5-c]pyridin-2-ol] | 250 |
| Cc1cc(Cn2c(O)nc3c(N)nc(C)c(C)c32)on1 [Example 20, 4-Amino-6,7-dimethyl-1-[(3-methylisoxazol-5-yl)methyl]-1H-imidazo[4,5-c]pyridin-2-ol] | > 300 |
| CCCCOc1cc2c(nc(O)n2Cc2ccccc2)c(N)n1 [Example 23, 4-amino-1-benzyl-6-butoxy-1H-imidazo[4,5-c]pyridin-2-ol] | 205 to 208 |

The remaining lines, values ahead:

| melting point [°C] | Structure (SMILES) |
| --- | --- |
| 260 to 262 | CCCCCc1cc2c(nc(O)n2Cc2ccccc2)c(N)n1 (as salt: salt) [Example 1, 4-Amino-1-benzyl-6-pentyl-1H-imidazo[4,5-c]pyridin-2-ol] |
| 238 to 240 | CCCCCc1cc2c(nc(O)n2CCc2ccccc2)c(N)n1 [Example 2, 4-Amino-6-pentyl-1-(2-phenylethyl)-1H-imidazo[4,5-c]pyridin-2-ol] |
| 240 to 243 | CCCCCc1cc2c(nc(O)n2CC(C)(C)O)c(N)n1 [Example 3, 4-Amino-1-(2-hydroxy-2-methylpropyl)-6-pentyl-1H-imidazo[4,5-c]pyridin-2-ol] |
| 243 to 245 | CCCCCc1cc2c(nc(O)n2Cc2cccnc2)c(N)n1 [Example 5, 4-Amino-6-pentyl-1-(pyridin-3-ylmethyl)-1H-imidazo[4,5-c]pyridin-2-ol] |
| 189 to 191 | CCCCCc1cc2c(nc(O)n2CCCNC(C)=O)c(N)n1 [Example 10, N-[3-(4-Amino-2-hydroxy-6-pentyl-1H-imidazo[4,5-c]pyridin-1-yl)propyl]acetamide] |
| 223 to 225 | CCCCCc1cc2c(nc(O)n2CCS(C)(=O)=O)c(N)n1 [Example 17, 4-Amino-1-[2-(methylsulfonyl)ethyl]-6-pentyl-1H-imidazo[4,5-c]pyridin-2-ol] |
| 146.7 to 147.7 | CCCCCc1cc2c(nc(O)n2[C@@H](C)c2ccccc2)c(N)n1 [Example 21, 4-Amino-6-pentyl-1-[(1S)-1-phenylethyl]-1H-imidazo[4,5-c]pyridin-2-ol] |
| 147.1 to 148 | CCCCCc1cc2c(nc(O)n2[C@H](C)c2ccccc2)c(N)n1 [Example 22, 4-Amino-6-pentyl-1-[(1R)-1-phenylethyl]-1H-imidazo[4,5-c]pyridin-2-ol] |
